Reference: PMC4739419, “Mutations in the nucleotide binding and hydrolysis domains of Helicobacter pylori MutS2 lead to altered biochemical activities and inactivation of its in vivo function” (BMC Microbiology, 2016)
Substitutions are numbered along the chain they refer to.

T1: HpMutS2-G338R (Helicobacter pylori, UniProt O25338, G338R)
T1 construct: (A) HpMutS2-G338R (1-762): Mol. wt; (kDa): 87.9; His6 (C); made in house; host or cells: E. coli Rosetta (DE3) pLysS
T1 sequence (O25338 1-762 G338R): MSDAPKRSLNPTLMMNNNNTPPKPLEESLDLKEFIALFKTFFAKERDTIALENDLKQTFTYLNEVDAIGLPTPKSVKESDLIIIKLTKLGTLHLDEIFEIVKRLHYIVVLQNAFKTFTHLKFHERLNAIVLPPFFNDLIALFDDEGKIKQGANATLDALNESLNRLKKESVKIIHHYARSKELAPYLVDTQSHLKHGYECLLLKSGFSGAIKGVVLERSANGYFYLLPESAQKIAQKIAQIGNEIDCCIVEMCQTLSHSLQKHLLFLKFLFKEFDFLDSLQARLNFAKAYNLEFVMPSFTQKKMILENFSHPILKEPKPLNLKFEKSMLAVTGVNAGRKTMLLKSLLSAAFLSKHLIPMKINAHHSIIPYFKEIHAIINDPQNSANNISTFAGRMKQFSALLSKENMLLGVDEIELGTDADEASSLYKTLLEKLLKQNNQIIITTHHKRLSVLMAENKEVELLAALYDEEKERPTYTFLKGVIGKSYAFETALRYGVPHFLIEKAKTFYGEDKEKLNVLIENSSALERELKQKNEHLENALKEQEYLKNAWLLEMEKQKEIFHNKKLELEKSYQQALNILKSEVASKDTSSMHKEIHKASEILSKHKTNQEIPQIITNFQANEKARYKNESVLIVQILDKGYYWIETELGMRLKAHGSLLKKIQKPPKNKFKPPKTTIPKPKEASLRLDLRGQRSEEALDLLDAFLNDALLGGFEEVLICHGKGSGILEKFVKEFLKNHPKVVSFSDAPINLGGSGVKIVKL

T2: HpMutS2-E413A (Helicobacter pylori, UniProt O25338, E413A)
T2 construct: (A) HpMutS2-E413A (1-762): Mol. wt; (kDa): 87.7; His6 (C); made in house; host or cells: E. coli Rosetta (DE3) pLysS
T2 sequence (O25338 1-762 E413A): T1 sequence (O25338 1-762 G338R) with R338G, E413A

T3: ssDNA-HpMutS2 complex (Helicobacter pylori, UniProt O25338)
T3 construct: (A) HpMutS2 (1-762): Mol. wt; (kDa): 87.8; His6 (C); made in house; host or cells: E. coli Rosetta (DE3) pLysS
T3 sequence (O25338 1-762): T1 sequence (O25338 1-762 G338R) with R338G

T4: HpMutS2 (Helicobacter pylori 26695, UniProt O25338 1-762)
T4 sequence: T1 sequence (O25338 1-762 G338R) with R338G

B1: ssDNA 63-mer (ODN4) (ssDNA)
DNA: ATCGATAGTCGGATCCTCCAGACAGCTCCATGTAGCAAGGCACTGGTAGAATTCGGCAGCGTC

Key:
HpMutS2-G338R [1] = molecular target: T1, HpMutS2-G338R; assay: Tryptophan fluorescence-quenching nucleotide binding assay; details: no divalent metal ions, protein 1 μM, 25 °C; read-out: Kd (dissociation constant)
Method: (§1) Next, the ATP hydrolysing abilities of HpMutS2-G338R and HpMutS2-E413A were tested and compared to that of wild-type HpMutS2. […] Therefore, to determine the nucleotide binding efficiencies of HpMutS2, HpMutS2-G338R, and HpMutS2-E413A, intrinsic fluorescence properties of these proteins were exploited. HpMutS2 has two tryptophan residues at positions 551 and 644. A fluorescence-quenching assay was used to determine the ATP and ADP binding affinities of HpMutS2 and its mutants. Quenching of the Trp fluorescence was recorded upon titration with ATP and ADP in absence of any divalent metal ions. Saturation isotherms generated from the changes in the fluorescence emission spectra of HpMutS2, HpMutS2-G338R, and HpMutS2-E413A were used to calculate the dissociation constants for ATP and ADP (Figs. 2a, b and c respectively).
(§2) Fig. 2 Nucleotide binding affinities of a HpMutS2 b HpMutS2-G338R and c HpMutS2-E413A. Tryptophan fluorescence assays described in the Methods section were used to determine the nucleotide binding affinities of proteins.
(§3) Fluorescence spectroscopy analysis of HpMutS2 was carried out based on the intrinsic fluorescent signal of tryptophan. The proteins were dialyzed in buffer B (50 mM Tris pH 8.0 and 100 mM NaCl) for 4–6 h with at least two changes of the buffer. Fluorescence intensities were measured on a Shimadzu, RF 5000 spectrofluorimeter using a 1-cm stirred quartz cuvette at 25 °C. The emission spectra were recorded over a wavelength of 300–400 nm with an excitation wavelength of 280 nm. To measure the dissociation constants for ATP and ADP, small aliquots of cofactor were added to proteins (1 μM), and spectra were recorded. Each spectra recorded was an average of three scans. The maximum fluorescence intensities observed at around 340 nm were selected for calculating the difference in intrinsic fluorescence of protein alone and in the presence of ligand. Control titrations were conducted and all the fluorescence emission spectra were corrected by subtracting control spectra. The dissociation constants were calculated graphically using a plot of ΔF/ΔFmax versus ligand concentration. ΔF is the magnitude of the difference between the observed fluorescence intensity at a given concentration of ligand and the fluorescence intensity in the absence of ligand and ΔFmax is the difference at saturating concentration of ligand.

HpMutS2 [2] = molecular target: T5, HpMutS2 (Helicobacter pylori, UniProt O25338); assay: as above; details: for Kd: no divalent metal ions, protein 1 μM, 25 °C, read-out: Kd (dissociation constant)
T5 construct: (A) HpMutS2 (1-762): Mol. wt; (kDa): 87.8; His6 (C); made in house; host or cells: E. coli Rosetta (DE3) pLysS
Method: as §1, §2, §3

HpMutS2-E413A [3] = molecular target: T2, HpMutS2-E413A; assay: as above; details: no divalent metal ions, protein 1 μM, 25 °C; read-out: Kd (dissociation constant)
Method: as §1, §2, §3

ssDNA-HpMutS2 complex = molecular target: T3, ssDNA-HpMutS2 complex; assay: Chase experiment on preformed nucleoprotein complex; assay type: binding; details: highest concentration of ATP used (0.25–5 mM)
HpMutS2 [4] = molecular target: T4, HpMutS2; assay: EMSA; 1 mM ATPgS; EMSA: 0.16 nM DNA, buffer A (50 mM Tris pH 8.0, 50 mM NaCl, 1 mM DTT per Fig. S3 legend) with 0.1 ug/ul BSA, NaCl 110 mM, no divalent metal stated, 30 min on ice, 8% native PAGE at 4 C; nucleotides 1 mM; Hill-slope fit; details: protein: recombinant; tags: C-terminal His6; chain copies: 4; label: 5'-32P
HpMutS2 [5] = molecular target: T4, HpMutS2; assay: EMSA; no nucleotide; EMSA: 0.16 nM DNA, buffer A (50 mM Tris pH 8.0, 50 mM NaCl, 1 mM DTT per Fig. S3 legend) with 0.1 ug/ul BSA, NaCl 110 mM, no divalent metal stated, 30 min on ice, 8% native PAGE at 4 C; nucleotides 1 mM; Hill-slope fit; details: protein: recombinant; tags: C-terminal His6; chain copies: 4; label: 5'-32P
HpMutS2-G338R [6] = molecular target: T6, HpMutS2-G338R (Helicobacter pylori 26695, UniProt O25338 1-762, G338R); assay: as above; details: protein: recombinant; tags: C-terminal His6; chain copies: 4; label: 5'-32P
HpMutS2-G338R [7] = molecular target: T6, HpMutS2-G338R; assay: EMSA; 1 mM ATP; EMSA: 0.16 nM DNA, buffer A (50 mM Tris pH 8.0, 50 mM NaCl, 1 mM DTT per Fig. S3 legend) with 0.1 ug/ul BSA, NaCl 110 mM, no divalent metal stated, 30 min on ice, 8% native PAGE at 4 C; nucleotides 1 mM; Hill-slope fit; details: protein: recombinant; tags: C-terminal His6; chain copies: 4; label: 5'-32P
HpMutS2 [8] = molecular target: T4, HpMutS2; assay: EMSA; 1 mM ADP; EMSA: 0.16 nM DNA, buffer A (50 mM Tris pH 8.0, 50 mM NaCl, 1 mM DTT per Fig. S3 legend) with 0.1 ug/ul BSA, NaCl 110 mM, no divalent metal stated, 30 min on ice, 8% native PAGE at 4 C; nucleotides 1 mM; Hill-slope fit; details: protein: recombinant; tags: C-terminal His6; chain copies: 4; label: 5'-32P
HpMutS2-G338R [9] = molecular target: T6, HpMutS2-G338R; assay: as above; details: protein: recombinant; tags: C-terminal His6; chain copies: 4; label: 5'-32P
HpMutS2-E413A [10] = molecular target: HpMutS2-E413A (Helicobacter pylori 26695, UniProt O25338 1-762, E413A); assay: EMSA; no nucleotide; no plateau, value not accurate; EMSA: 0.16 nM DNA, buffer A (50 mM Tris pH 8.0, 50 mM NaCl, 1 mM DTT per Fig. S3 legend) with 0.1 ug/ul BSA, NaCl 110 mM, no divalent metal stated, 30 min on ice, 8% native PAGE at 4 C; nucleotides 1 mM; Hill-slope fit; details: protein: recombinant; tags: C-terminal His6; chain copies: 4; label: 5'-32P

Row | Molecule | Kd (HpMutS2-G338R [1]) [nM] | Kd (HpMutS2 [2]) [nM] | Kd value, fold less than Km value (HpMutS2 [2]; wild-type HpMutS2) | Kd (HpMutS2-E413A [3]) [nM] | dissociation of ssDNA from preformed complex (ssDNA-HpMutS2 complex) | Kd (HpMutS2 [4]) [nM] | Kd (HpMutS2 [5]) [nM] | Kd (HpMutS2-G338R [6]) [nM] | Kd (HpMutS2-G338R [7]) [nM] | Kd (HpMutS2 [8]) [nM] | Kd (HpMutS2-G338R [9]) [nM] | Kd (HpMutS2-E413A [10]) [nM]
1 | Nc1ncnc2c1ncn2[C@@H]1O[C@H](COP(=O)(O)OP(=O)(O)OP(=O)(O)O)[C@@H](O)[C@H]1O [ATP] | 409000 ± 70400 | 167000 ± 24300 | ~ 2.4 fold | 220000 ± 54200 | ~ 20% |  |  |  |  |  |  | 
2 | Nc1ncnc2c1ncn2[C@@H]1O[C@H](COP(=O)(O)OP(=O)(O)O)[C@@H](O)[C@H]1O [ADP] | 318000 ± 68500 | 149000 ± 31800 |  | 239000 ± 82900 |  |  |  |  |  |  |  | 
3 | B1 |  |  |  |  |  | 11.4 ± 0.19 | 21.5 ± 2.28 | 32.4 ± 3.32 | 30.7 ± 3.43 | 17.3 ± 2.89 | 23.9 ± 2.91 | ~73.8
